# Measurements reported in US4013791A, “Peptides having an antihypertensive effect” (Hoechst Aktiengesellschaft, priority 1974, dated 1977).
# Tests used:
# angiotensin II (AT II) [1] = assay: Duration of action of a single injection of the analog under permanent infusion of AT II; assay type: in vivo; conditions: single injection 0.1mg/kg i.v. under permanent infusion of AT II
# Protocol: (§1) The potency of the AT II analogs is determined by measuring the increase in blood pressure caused by increasing amounts of AT II with and without infusion of the analog to be tested, at different dosages; duration of action is determined on the basis of the time during which a single injection of the analog to be tested is effective under permanent infusion of AT II.
# angiotensin II (AT II) [2] = assay: Potency of AT II analogs: inhibition of the increase in blood pressure caused by AT II, with and without infusion of the analog; assay type: in vivo; conditions: for Inhibiting effect in percent, 0.5mcg/kg i.v. AT II: AT II 0.5mcg/kg i.v.; for Inhibiting effect in percent, 1mcg/kg i.v. AT II: AT II 1mcg/kg i.v.; for Inhibiting effect in percent, 2mcg/kg i.v. AT II: AT II 2mcg/kg i.v.
# Protocol: as §1
# [3] = analog infusion 1 mcg/kg/min i.v.
# [4] = analog infusion 5 mcg/kg/min i.v.
# [5] = analog infusion 10mcg/kg/min i.v.
substance,measurement,setting,value
"Succinamoyl--Arg--Val--Tyr--Val--His--Pro--Phegly--OH [[Suc^1,Val^5 pgl^8] AT II]",duration of action in min. 0.1mg/kg i.v.,angiotensin II (AT II) [1],89 ± 22 min
same,"Inhibiting effect in percent, 0.5mcg/kg i.v. AT II",angiotensin II (AT II) [2]; [3],42%
same,"Inhibiting effect in percent, 0.5mcg/kg i.v. AT II",angiotensin II (AT II) [2]; [4],88%
same,"Inhibiting effect in percent, 0.5mcg/kg i.v. AT II",angiotensin II (AT II) [2]; [5],98%
same,"Inhibiting effect in percent, 1mcg/kg i.v. AT II",angiotensin II (AT II) [2]; [3],51%
same,"Inhibiting effect in percent, 1mcg/kg i.v. AT II",angiotensin II (AT II) [2]; [4],94%
same,"Inhibiting effect in percent, 1mcg/kg i.v. AT II",angiotensin II (AT II) [2]; [5],94%
same,"Inhibiting effect in percent, 2mcg/kg i.v. AT II",angiotensin II (AT II) [2]; [3],55%
same,"Inhibiting effect in percent, 2mcg/kg i.v. AT II",angiotensin II (AT II) [2]; [4],93%
same,"Inhibiting effect in percent, 2mcg/kg i.v. AT II",angiotensin II (AT II) [2]; [5],92%
"[1-sarcosine,5-valine, 8-alanine] angiotensin II [[Sar^1,Val^5 Ala^8] AT II]",duration of action in min. 0.1mg/kg i.v.,angiotensin II (AT II) [1],66 ± 21 min
same,"Inhibiting effect in percent, 0.5mcg/kg i.v. AT II",angiotensin II (AT II) [2]; [3],0%
same,"Inhibiting effect in percent, 0.5mcg/kg i.v. AT II",angiotensin II (AT II) [2]; [4],63%
same,"Inhibiting effect in percent, 0.5mcg/kg i.v. AT II",angiotensin II (AT II) [2]; [5],88%
same,"Inhibiting effect in percent, 1mcg/kg i.v. AT II",angiotensin II (AT II) [2]; [3],22%
same,"Inhibiting effect in percent, 1mcg/kg i.v. AT II",angiotensin II (AT II) [2]; [4],76%
same,"Inhibiting effect in percent, 1mcg/kg i.v. AT II",angiotensin II (AT II) [2]; [5],90%
same,"Inhibiting effect in percent, 2mcg/kg i.v. AT II",angiotensin II (AT II) [2]; [3],31%
same,"Inhibiting effect in percent, 2mcg/kg i.v. AT II",angiotensin II (AT II) [2]; [4],75%
same,"Inhibiting effect in percent, 2mcg/kg i.v. AT II",angiotensin II (AT II) [2]; [5],89%
